Laboratory results as given in US20070049564A1 (Wyeth, priority 2005, published 2007).
≈ marks a conversion by molar mass, not a printed value. Read-outs that look alike come from different tables or passages of the source.

What was measured:
Staph. aureus Smith = assay: In vivo activity (oral, iv; ED50) against Staph. aureus Smith in mice
Protocol: Representative examples of compounds of Formula I were tested for the oral efficacy using S. aureus Smith in mice.

S. aureus GC 1131 = assay: MIC, broth microdilution; details: Staphylococcus aureus
E. coli GC 3226 = assay: MIC, broth microdilution; details: Escherichia coli
E. faecalis GC 4555 = assay: MIC, broth microdilution; details: Enterococcus faecalis
S. epidermidis GC 4935 = assay: MIC, broth microdilution; details: Staphylococcus epidermidis
E. faecalis GC 2265 = assay: MIC, broth microdilution; details: Enterococcus faecalis
E. coli GC 2234 = assay: MIC, broth microdilution; details: Escherichia coli
E. faecalis GC 2267 = assay: MIC, broth microdilution; details: Enterococcus faecalis
S. pyogenes GC 4563 = assay: MIC, broth microdilution; details: Streptococcus pyogenes
E. coli GC 2203 = assay: MIC, broth microdilution; details: Escherichia coli
P. aeruginosa GC 2214 = assay: MIC, broth microdilution; details: Pseudomonas aeruginosa
S. pneumoniae* GC 4465 = assay: MIC, broth microdilution; details: Streptococcus pneumoniae
S. aureus GC 6335 = assay: MIC, broth microdilution; details: Staphylococcus aureus
E. coli GC 2272 = assay: MIC, broth microdilution; details: Escherichia coli
E. coli GC 2271 = assay: MIC, broth microdilution; details: Escherichia coli
E. coli GC 2236 = assay: MIC, broth microdilution; details: Escherichia coli
E. coli GC 4559 = assay: MIC, broth microdilution; details: Escherichia coli
S. agalactiae GC 4564 = assay: MIC, broth microdilution; details: Streptococcus agalactiae
E. coli GC 2232 = assay: MIC, broth microdilution; details: Escherichia coli
Protocol: (§1) Antimicrobial susceptibility testing. The in vitro activities of the antibiotics are determined by the broth microdilution method as recommended by the National Committee for Clinical Laboratory Standards (NCCLS) (1). Mueller-Hinton II broth (MHBII)(BBL Cockeysville, Md.) is the medium employed in the testing procedures. Microtiter plates containing serial dilutions of each antimicrobial agent are inoculated with each organism to yield the appropriate density (10^5 CFU/ml) in a 100 μl final volume. The plates are incubated for 18-22 hours at 35° C. in ambient air.
Representative compounds were first incubated in mouse serum for an hour prior to the in vitro testing against a panel of selected gram-positive and gram-negative bacteria strains. All compounds were also pre-incubated in water for an hour prior to testing as control. Representative compounds of Formula I were incubated in human serum prior to MIC determination.

S. pneumoniae+ GC 4465 = assay: MIC, broth microdilution; details: Streptococcus pneumoniae
Protocol: as §1
Representative compounds were first incubated in mouse serum for an hour prior to the in vitro testing against a panel of selected gram-positive and gram-negative bacteria strains. All compounds were also pre-incubated in water for an hour prior to testing as control.

[1] = read-out: MINIMAL INHIBITORY CONCENTRATION MIC, Human Serum
[2] = read-out: MINIMAL INHIBITORY CONCENTRATION MIC, Mouse Serum
[3] = read-out: MINIMAL INHIBITORY CONCENTRATION MIC, Water

CCCCCCC(=O)OCOC(=O)N(CC(=O)Nc1cc(N(C)C)c2c(c1O)C(=O)C1=C(O)[C@]3(O)C(=O)C(C(N)=O)=C(O)[C@@H](N(C)C)[C@@H]3C[C@@H]1C2)C(C)(C)C [Example 48, ({[(2-{[(5aR,6aS,7S,10aS)-9-(aminocarbonyl)-4,7-bis(dimethylamino)-1,8,10a,11-tetrahydroxy-10,12-dioxo-5,5a,6,6a,7,10,10a,12-octahydrotetracen-2-yl]amino}-2-oxoethyl)(tert-butyl)amino]carbonyl}oxy)methyl heptanoate]
ED50 (Staph. aureus Smith; Staphylococcus aureus, in Mus musculus, iv, read-out: ED50 SIV (Staph aureus Smith)): 1.1 mg/kg
ED50 (Staph. aureus Smith; Staphylococcus aureus, in Mus musculus, po, read-out: ED50 SOD (Staph aureus Smith)): 10.1 mg/kg
ED50 (Staph. aureus Smith; Staphylococcus aureus, in Mus musculus, po, read-out: ED50 Staph Smith SOD): 10.1 mg/kg
ED50 (Staph. aureus Smith; iv, read-out: ED50 Staph Smith SIV): 1.1 mg/kg
MIC (S. aureus GC 1131; GC1131, read-out: MINIMAL INHIBITORY CONCENTRATION MIC, Human Serum): 0.25 µg/mL (≈ 0.324 µM)
MIC (S. aureus GC 1131; GC1131, read-out: MINIMAL INHIBITORY CONCENTRATION MIC, Mouse Serum): 0.25 µg/mL (≈ 0.324 µM)
MIC (S. aureus GC 1131; GC1131, read-out: MINIMAL INHIBITORY CONCENTRATION MIC, Water): 0.25 µg/mL (≈ 0.324 µM)
MIC (E. coli GC 3226; GC3226, read-out: MINIMAL INHIBITORY CONCENTRATION MIC, Human Serum): 32 µg/mL (≈ 41.5 µM)
MIC (E. coli GC 3226; GC3226, read-out: MINIMAL INHIBITORY CONCENTRATION MIC, Mouse Serum): 0.5 µg/mL (≈ 0.648 µM)
MIC (E. coli GC 3226; GC3226, read-out: MINIMAL INHIBITORY CONCENTRATION MIC, Water): > 64 µg/mL
MIC (E. faecalis GC 4555; GC4555, read-out: MINIMAL INHIBITORY CONCENTRATION MIC, Human Serum): 4 µg/mL (≈ 5.18 µM)
MIC (E. faecalis GC 4555; GC4555, read-out: MINIMAL INHIBITORY CONCENTRATION MIC, Mouse Serum): 0.12 µg/mL (≈ 0.155 µM)
MIC (E. faecalis GC 4555; GC4555, read-out: MINIMAL INHIBITORY CONCENTRATION MIC, Water): 2 µg/mL (≈ 2.59 µM)
MIC (S. epidermidis GC 4935; GC4935, read-out: MINIMAL INHIBITORY CONCENTRATION MIC, Human Serum): 0.5 µg/mL (≈ 0.648 µM)
MIC (S. epidermidis GC 4935; GC4935, read-out: MINIMAL INHIBITORY CONCENTRATION MIC, Mouse Serum): 0.5 µg/mL (≈ 0.648 µM)
MIC (S. epidermidis GC 4935; GC4935, read-out: MINIMAL INHIBITORY CONCENTRATION MIC, Water): 1 µg/mL (≈ 1.3 µM)
MIC (E. faecalis GC 2265; GC2265, read-out: MINIMAL INHIBITORY CONCENTRATION MIC, Human Serum): 1 µg/mL (≈ 1.3 µM)
MIC (E. faecalis GC 2265; GC2265, read-out: MINIMAL INHIBITORY CONCENTRATION MIC, Mouse Serum): 0.5 µg/mL (≈ 0.648 µM)
MIC (E. faecalis GC 2265; GC2265, read-out: MINIMAL INHIBITORY CONCENTRATION MIC, Water): 2 µg/mL (≈ 2.59 µM)
MIC (E. coli GC 2234; GC2234, read-out: MINIMAL INHIBITORY CONCENTRATION MIC, Human Serum): 16 µg/mL (≈ 20.7 µM)
MIC (E. coli GC 2234; GC2234, read-out: MINIMAL INHIBITORY CONCENTRATION MIC, Mouse Serum): 0.5 µg/mL (≈ 0.648 µM)
MIC (E. coli GC 2234; GC2234, read-out: MINIMAL INHIBITORY CONCENTRATION MIC, Water): 64 µg/mL (≈ 82.9 µM)
MIC (E. faecalis GC 2267; GC2267, read-out: MINIMAL INHIBITORY CONCENTRATION MIC, Human Serum): 1 µg/mL (≈ 1.3 µM)
MIC (E. faecalis GC 2267; GC2267, read-out: MINIMAL INHIBITORY CONCENTRATION MIC, Mouse Serum): 0.5 µg/mL (≈ 0.648 µM)
MIC (E. faecalis GC 2267; GC2267, read-out: MINIMAL INHIBITORY CONCENTRATION MIC, Water): 2 µg/mL (≈ 2.59 µM)
MIC (S. pyogenes GC 4563; GC4563, read-out: MINIMAL INHIBITORY CONCENTRATION MIC, Human Serum): 0.12 µg/mL (≈ 0.155 µM)
MIC (S. pyogenes GC 4563; GC4563, read-out: MINIMAL INHIBITORY CONCENTRATION MIC, Mouse Serum): 0.12 µg/mL (≈ 0.155 µM)
MIC (S. pyogenes GC 4563; GC4563, read-out: MINIMAL INHIBITORY CONCENTRATION MIC, Water): 0.12 µg/mL (≈ 0.155 µM)
MIC (E. coli GC 2203; GC2203, read-out: MINIMAL INHIBITORY CONCENTRATION MIC, Human Serum): 16 µg/mL (≈ 20.7 µM)
MIC (E. coli GC 2203; GC2203, read-out: MINIMAL INHIBITORY CONCENTRATION MIC, Mouse Serum): 0.25 µg/mL (≈ 0.324 µM)
MIC (E. coli GC 2203; GC2203, read-out: MINIMAL INHIBITORY CONCENTRATION MIC, Water): 64 µg/mL (≈ 82.9 µM)
MIC (P. aeruginosa GC 2214; GC2214, read-out: MINIMAL INHIBITORY CONCENTRATION MIC, Human Serum): > 64 µg/mL
MIC (P. aeruginosa GC 2214; GC2214, read-out: MINIMAL INHIBITORY CONCENTRATION MIC, Mouse Serum): 16 µg/mL (≈ 20.7 µM)
MIC (P. aeruginosa GC 2214; GC2214, read-out: MINIMAL INHIBITORY CONCENTRATION MIC, Water): > 64 µg/mL
MIC (S. pneumoniae* GC 4465; [1]): 0.12 µg/mL (≈ 0.155 µM)
MIC (S. pneumoniae* GC 4465; [2]): 0.12 µg/mL (≈ 0.155 µM)
MIC (S. pneumoniae* GC 4465; [3]): 0.12 µg/mL (≈ 0.155 µM)
MIC (S. aureus GC 6335; GC6335, read-out: MINIMAL INHIBITORY CONCENTRATION MIC, Human Serum): 2 µg/mL (≈ 2.59 µM)
MIC (S. aureus GC 6335; GC6335, read-out: MINIMAL INHIBITORY CONCENTRATION MIC, Mouse Serum): 2 µg/mL (≈ 2.59 µM)
MIC (S. aureus GC 6335; GC6335, read-out: MINIMAL INHIBITORY CONCENTRATION MIC, Water): 2 µg/mL (≈ 2.59 µM)
MIC (E. coli GC 2272; GC2272, read-out: MINIMAL INHIBITORY CONCENTRATION MIC, Human Serum): 8 µg/mL (≈ 10.4 µM)
MIC (E. coli GC 2272; GC2272, read-out: MINIMAL INHIBITORY CONCENTRATION MIC, Mouse Serum): 0.25 µg/mL (≈ 0.324 µM)
MIC (E. coli GC 2272; GC2272, read-out: MINIMAL INHIBITORY CONCENTRATION MIC, Water): 64 µg/mL (≈ 82.9 µM)
MIC (E. coli GC 2271; GC2271, read-out: MINIMAL INHIBITORY CONCENTRATION MIC, Human Serum): 8 µg/mL (≈ 10.4 µM)
MIC (E. coli GC 2271; GC2271, read-out: MINIMAL INHIBITORY CONCENTRATION MIC, Mouse Serum): 0.25 µg/mL (≈ 0.324 µM)
MIC (E. coli GC 2271; GC2271, read-out: MINIMAL INHIBITORY CONCENTRATION MIC, Water): 32 µg/mL (≈ 41.5 µM)
MIC (E. coli GC 2236; GC2236, read-out: MINIMAL INHIBITORY CONCENTRATION MIC, Human Serum): 16 µg/mL (≈ 20.7 µM)
MIC (E. coli GC 2236; GC2236, read-out: MINIMAL INHIBITORY CONCENTRATION MIC, Mouse Serum): 0.25 µg/mL (≈ 0.324 µM)
MIC (E. coli GC 2236; GC2236, read-out: MINIMAL INHIBITORY CONCENTRATION MIC, Water): 64 µg/mL (≈ 82.9 µM)
MIC (E. coli GC 4559; GC4559, read-out: MINIMAL INHIBITORY CONCENTRATION MIC, Human Serum): 32 µg/mL (≈ 41.5 µM)
MIC (E. coli GC 4559; GC4559, read-out: MINIMAL INHIBITORY CONCENTRATION MIC, Mouse Serum): 0.25 µg/mL (≈ 0.324 µM)
MIC (E. coli GC 4559; GC4559, read-out: MINIMAL INHIBITORY CONCENTRATION MIC, Water): > 64 µg/mL
MIC (S. agalactiae GC 4564; GC4564, read-out: MINIMAL INHIBITORY CONCENTRATION MIC, Human Serum): 0.12 µg/mL (≈ 0.155 µM)
MIC (S. agalactiae GC 4564; GC4564, read-out: MINIMAL INHIBITORY CONCENTRATION MIC, Mouse Serum): 0.12 µg/mL (≈ 0.155 µM)
MIC (S. agalactiae GC 4564; GC4564, read-out: MINIMAL INHIBITORY CONCENTRATION MIC, Water): 0.12 µg/mL (≈ 0.155 µM)
MIC (E. coli GC 2232; GC2232, read-out: MINIMAL INHIBITORY CONCENTRATION MIC, Human Serum): 16 µg/mL (≈ 20.7 µM)
MIC (E. coli GC 2232; GC2232, read-out: MINIMAL INHIBITORY CONCENTRATION MIC, Mouse Serum): 0.25 µg/mL (≈ 0.324 µM)
MIC (E. coli GC 2232; GC2232, read-out: MINIMAL INHIBITORY CONCENTRATION MIC, Water): 64 µg/mL (≈ 82.9 µM)
MIC (S. pneumoniae+ GC 4465; [1]): 0.25 µg/mL (≈ 0.324 µM)
MIC (S. pneumoniae+ GC 4465; [2]): 0.25 µg/mL (≈ 0.324 µM)
MIC (S. pneumoniae+ GC 4465; [3]): 0.25 µg/mL (≈ 0.324 µM)
